ChEMBL document CHEMBL3045685, “Discovery of bis-aromatic ring neonicotinoid analogues fixed as cis-configuration: Synthesis, insecticidal activities, and molecular docking studies” (2010)

The compounds below were run on Nilaparvata lugens (assay: In vivo insecticidal activity against fifth-instar larval stage of Nilaparvata lugens (brown planthopper) in second semester rice seedlings assessed as insect mortality at 10 mg/L treated for 5 secs before larval infestation measured after 72 hr).
Assay type: functional

Row | Structure (SMILES) | mortality at 10 µg/mL [%]
1 | CCOC(=O)CN1CC([N+](=O)[O-])=C(N(CC)Cc2ccc(Cl)nc2)N(C)C1 | ≥ 90
2 | CCN(Cc1ccc(Cl)nc1)C1=C([N+](=O)[O-])CN(Cc2ccc(Cl)nc2)CN1C | ≥ 80
3 | CCN(Cc1ccc(Cl)nc1)C1=C([N+](=O)[O-])CN(CCc2ccccc2)CN1C | ≥ 80
4 | CCN(Cc1ccc(Cl)nc1)C1=C([N+](=O)[O-])CN(C2CCCCC2)CN1C | ≥ 60
5 | CCN(Cc1ccc(Cl)nc1)C1=C([N+](=O)[O-])CN(c2ccccc2)CN1C | ≥ 70
6 | CCN(Cc1ccc(Cl)nc1)C1=C([N+](=O)[O-])CN(c2ccc(F)cc2)CN1C | ≥ 80
7 | CCN(Cc1ccc(Cl)nc1)C1=C([N+](=O)[O-])CN(c2ccccc2OC)CN1C | ≥ 60
8 | CCN(Cc1ccc(Cl)nc1)C1=C([N+](=O)[O-])CN(Cc2ccccc2)CN1C | ≥ 90
9 | CCN(Cc1ccc(Cl)nc1)C1=C([N+](=O)[O-])CN(Cc2ccc(C)cc2)CN1C | ≥ 50
10 | CCN(Cc1ccc(Cl)nc1)C1=C([N+](=O)[O-])CN(Cc2ccccn2)CN1C | ≥ 70
11 | CCOC(=O)C(CC(C)C)N1CC([N+](=O)[O-])=C(N(CC)Cc2ccc(Cl)nc2)N(C)C1 (racemic) | < 50
12 | CCOC(=O)C(Cc1ccccc1)N1CC([N+](=O)[O-])=C(N(CC)Cc2ccc(Cl)nc2)N(C)C1 (racemic) | ≥ 60
13 | CCN(Cc1ccc(Cl)nc1)C1=C([N+](=O)[O-])CN(C(C)c2ccc(C)cc2)CN1C (racemic) | ≥ 70
14 | CCN(Cc1ccc(Cl)nc1)C1=C([N+](=O)[O-])CN(C(C)c2ccccc2)CN1C (single isomer, unassigned; (+)) | ≥ 80
15 | CCN(Cc1ccc(Cl)nc1)/C(=C/[N+](=O)[O-])NC [NITENPYRAM] | 100

The compounds below were run on Nilaparvata lugens (assay: In vivo insecticidal activity against fifth-instar larval stage of Nilaparvata lugens (brown planthopper) in second semester rice seedlings assessed as insect mortality at 100 mg/L treated for 5 secs before larval infestation measured after 72 hr).
Assay type: functional

Row | Structure (SMILES) | mortality at 100 µg/mL [%]
16 | CCOC(=O)CN1CC([N+](=O)[O-])=C(N(CC)Cc2ccc(Cl)nc2)N(C)C1 | 100
17 | CCN(Cc1ccc(Cl)nc1)C1=C([N+](=O)[O-])CN(Cc2ccc(Cl)nc2)CN1C | 100
18 | CCN(Cc1ccc(Cl)nc1)C1=C([N+](=O)[O-])CN(CCc2ccccc2)CN1C | 100
19 | CCN(Cc1ccc(Cl)nc1)C1=C([N+](=O)[O-])CN(C2CCCCC2)CN1C | ≥ 80
20 | CCN(Cc1ccc(Cl)nc1)C1=C([N+](=O)[O-])CN(c2ccccc2)CN1C | ≥ 90
21 | CCN(Cc1ccc(Cl)nc1)C1=C([N+](=O)[O-])CN(c2ccc(F)cc2)CN1C | 100
22 | CCN(Cc1ccc(Cl)nc1)C1=C([N+](=O)[O-])CN(c2ccccc2OC)CN1C | 100
23 | CCN(Cc1ccc(Cl)nc1)C1=C([N+](=O)[O-])CN(Cc2ccccc2)CN1C | 100
24 | CCN(Cc1ccc(Cl)nc1)C1=C([N+](=O)[O-])CN(Cc2ccc(C)cc2)CN1C | ≥ 70
25 | CCN(Cc1ccc(Cl)nc1)C1=C([N+](=O)[O-])CN(Cc2ccc(OC)cc2)CN1C | ≥ 50
26 | CCN(Cc1ccc(Cl)nc1)C1=C([N+](=O)[O-])CN(Cc2ccccn2)CN1C | ≥ 80
27 | CCOC(=O)C(CC(C)C)N1CC([N+](=O)[O-])=C(N(CC)Cc2ccc(Cl)nc2)N(C)C1 (racemic) | ≥ 50
28 | CCOC(=O)C(Cc1ccccc1)N1CC([N+](=O)[O-])=C(N(CC)Cc2ccc(Cl)nc2)N(C)C1 (racemic) | ≥ 70
29 | CCN(Cc1ccc(Cl)nc1)C1=C([N+](=O)[O-])CN(C(C)c2ccc(C)cc2)CN1C (racemic) | ≥ 80
30 | CCN(Cc1ccc(Cl)nc1)C1=C([N+](=O)[O-])CN(C(C)c2ccccc2)CN1C (single isomer, unassigned; (+)) | 100
31 | CCN(Cc1ccc(Cl)nc1)/C(=C/[N+](=O)[O-])NC [NITENPYRAM] | 100

The compounds below were run on Nilaparvata lugens (assay: In vivo insecticidal activity against fifth-instar larval stage of Nilaparvata lugens (brown planthopper) in second semester rice seedlings assessed as insect mortality at 500 mg/L treated for 5 secs before larval infestation measured after 72 hr).
Assay type: functional

Row | Structure (SMILES) | mortality at 500 µg/mL [%]
32 | CCOC(=O)CN1CC([N+](=O)[O-])=C(N(CC)Cc2ccc(Cl)nc2)N(C)C1 | 100
33 | CCN(Cc1ccc(Cl)nc1)C1=C([N+](=O)[O-])CN(Cc2ccc(Cl)nc2)CN1C | 100
34 | CCN(Cc1ccc(Cl)nc1)C1=C([N+](=O)[O-])CN(CCc2ccccc2)CN1C | 100
35 | CCN(Cc1ccc(Cl)nc1)C1=C([N+](=O)[O-])CN(C2CCCCC2)CN1C | ≥ 90
36 | CCN(Cc1ccc(Cl)nc1)C1=C([N+](=O)[O-])CN(c2ccccc2)CN1C | 100
37 | CCN(Cc1ccc(Cl)nc1)C1=C([N+](=O)[O-])CN(c2ccc(F)cc2)CN1C | 100
38 | CCN(Cc1ccc(Cl)nc1)C1=C([N+](=O)[O-])CN(c2ccccc2OC)CN1C | 100
39 | CCN(Cc1ccc(Cl)nc1)C1=C([N+](=O)[O-])CN(Cc2ccccc2)CN1C | 100
40 | CCN(Cc1ccc(Cl)nc1)C1=C([N+](=O)[O-])CN(Cc2ccc(C)cc2)CN1C | 100
41 | CCN(Cc1ccc(Cl)nc1)C1=C([N+](=O)[O-])CN(Cc2ccc(OC)cc2)CN1C | ≥ 90
42 | CCN(Cc1ccc(Cl)nc1)C1=C([N+](=O)[O-])CN(Cc2ccccn2)CN1C | 100
43 | CCOC(=O)C(CC(C)C)N1CC([N+](=O)[O-])=C(N(CC)Cc2ccc(Cl)nc2)N(C)C1 (racemic) | ≥ 70
44 | CCOC(=O)C(Cc1ccccc1)N1CC([N+](=O)[O-])=C(N(CC)Cc2ccc(Cl)nc2)N(C)C1 (racemic) | ≥ 80
45 | CCN(Cc1ccc(Cl)nc1)C1=C([N+](=O)[O-])CN(C(C)c2ccc(C)cc2)CN1C (racemic) | ≥ 90
46 | CCN(Cc1ccc(Cl)nc1)C1=C([N+](=O)[O-])CN(C(C)c2ccccc2)CN1C (single isomer, unassigned; (+)) | 100
47 | CCN(Cc1ccc(Cl)nc1)/C(=C/[N+](=O)[O-])NC [NITENPYRAM] | 100
